Results published in PubChem BioAssay AID1259407 (Chemical Carcinogenesis Research Information System (CCRIS), 2018).
The source made the active and inactive calls. No rule for the calls is given here.

Tested on: CCRIS mutagenicity, Ames/micronucleus/aberration tests
Experiment: CCRIS mutagenicity studies

SMILES: ClCC(Br)CBr (stereo not drawn)
- mutagenic call (End Point: IN VITRO CHROMOSOMAL ABERRATIONS, Test System: CHO CELLS, Metabolic Activation: NONE): active; positive
- mutagenic call (End Point: IN VITRO CHROMOSOMAL ABERRATIONS, Test System: CHO CELLS, Metabolic Activation: RAT, LIVER, S-9, AROCLOR 1254): active; positive
- mutagenic call (Test System: AMES SALMONELLA TYPHIMURIUM, Strain/Indicator: TA97, Metabolic Activation: HAMSTER, LIVER, S-9, AROCLOR 1254 (10%), Method: PREINCUBATION): active; positive
- mutagenic call (Test System: AMES SALMONELLA TYPHIMURIUM, Strain/Indicator: TA97, Metabolic Activation: NONE, Method: PREINCUBATION): inactive; negative
- mutagenic call (Test System: AMES SALMONELLA TYPHIMURIUM, Strain/Indicator: TA97, Metabolic Activation: RAT, LIVER, S-9, AROCLOR 1254 (10%), Method: PREINCUBATION): active; positive
- mutagenic call (Test System: AMES SALMONELLA TYPHIMURIUM, Strain/Indicator: TA98, Metabolic Activation: HAMSTER, LIVER, S-9, AROCLOR 1254 (10%), Method: PREINCUBATION): active; positive
- mutagenic call (Test System: AMES SALMONELLA TYPHIMURIUM, Strain/Indicator: TA98, Metabolic Activation: NONE, Method: FLASK ASSAY): inactive; negative
- mutagenic call (Test System: AMES SALMONELLA TYPHIMURIUM, Strain/Indicator: TA98, Metabolic Activation: NONE, Method: PREINCUBATION): inactive; negative
- mutagenic call (Test System: AMES SALMONELLA TYPHIMURIUM, Strain/Indicator: TA98, Metabolic Activation: RAT, LIVER, S-9, AROCLOR 1254 (10%), Method: PREINCUBATION): inactive; negative
- mutagenic call (Test System: AMES SALMONELLA TYPHIMURIUM, Strain/Indicator: TA98, Metabolic Activation: RAT, LIVER, S-9, AROCLOR 1254, Method: FLASK ASSAY): active; positive
- mutagenic call (Test System: AMES SALMONELLA TYPHIMURIUM, Strain/Indicator: TA100, Metabolic Activation: HAMSTER, LIVER, S-9, AROCLOR 1254 (10%), Method: PREINCUBATION): active; positive
- mutagenic call (Test System: AMES SALMONELLA TYPHIMURIUM, Strain/Indicator: TA100, Metabolic Activation: NONE, Method: FLASK ASSAY): inactive; negative
- mutagenic call (Test System: AMES SALMONELLA TYPHIMURIUM, Strain/Indicator: TA100, Metabolic Activation: NONE, Method: PREINCUBATION): inactive; negative
- mutagenic call (Test System: AMES SALMONELLA TYPHIMURIUM, Strain/Indicator: TA100, Metabolic Activation: NONE, Method: STANDARD PLATE): inactive; negative
- mutagenic call (Test System: AMES SALMONELLA TYPHIMURIUM, Strain/Indicator: TA100, Metabolic Activation: NONE, Method: SUSPENSION/PLATE): inactive; negative
- mutagenic call (Test System: AMES SALMONELLA TYPHIMURIUM, Strain/Indicator: TA100, Metabolic Activation: RAT TESTICULAR CELLS, Method: STANDARD PLATE): inactive; negative
- mutagenic call (Test System: AMES SALMONELLA TYPHIMURIUM, Strain/Indicator: TA100, Metabolic Activation: RAT, HEPATOCYTES, AROCLOR 1254, Method: STANDARD PLATE): active; positive
- mutagenic call (Test System: AMES SALMONELLA TYPHIMURIUM, Strain/Indicator: TA100, Metabolic Activation: RAT, HEPATOCYTES, Method: STANDARD PLATE): active; positive
- mutagenic call (Test System: AMES SALMONELLA TYPHIMURIUM, Strain/Indicator: TA100, Metabolic Activation: RAT, LIVER, HEPATOCYTES, Method: SUSPENSION/PLATE): active; positive
- mutagenic call (Test System: AMES SALMONELLA TYPHIMURIUM, Strain/Indicator: TA100, Metabolic Activation: RAT, LIVER, MICROSOMES, AROCLOR 1254, Method: PREINCUBATION): active; positive
- mutagenic call (Test System: AMES SALMONELLA TYPHIMURIUM, Strain/Indicator: TA100, Metabolic Activation: RAT, LIVER, MICROSOMES, PHENOBARBITAL, NADPH COFACTORS, Method: STANDARD PLATE): active; positive
- mutagenic call (Test System: AMES SALMONELLA TYPHIMURIUM, Strain/Indicator: TA100, Metabolic Activation: RAT, LIVER, MICROSOMES, PHENOBARBITAL, Method: PREINCUBATION): active; positive
- mutagenic call (Test System: AMES SALMONELLA TYPHIMURIUM, Strain/Indicator: TA100, Metabolic Activation: RAT, LIVER, MICROSOMES, PHENOBARBITAL, Method: STANDARD PLATE): inactive; negative
- mutagenic call (Test System: AMES SALMONELLA TYPHIMURIUM, Strain/Indicator: TA100, Metabolic Activation: RAT, LIVER, MICROSOMES, Method: PREINCUBATION): active; positive
- mutagenic call (Test System: AMES SALMONELLA TYPHIMURIUM, Strain/Indicator: TA100, Metabolic Activation: RAT, LIVER, S-9, AROCLOR 1254 (10%), Method: PREINCUBATION): active; positive
- mutagenic call (Test System: AMES SALMONELLA TYPHIMURIUM, Strain/Indicator: TA100, Metabolic Activation: RAT, LIVER, S-9, AROCLOR 1254, Method: FLASK ASSAY): active; positive
- mutagenic call (Test System: AMES SALMONELLA TYPHIMURIUM, Strain/Indicator: TA100, Metabolic Activation: RAT,TESTICULAR CELLS, AROCLOR 1254, Method: STANDARD PLATE): inactive; negative
- mutagenic call (Test System: AMES SALMONELLA TYPHIMURIUM, Strain/Indicator: TA100, Metabolic Activation: S-9 MIX, Method: STANDARD PLATE): active; positive
- mutagenic call (Test System: AMES SALMONELLA TYPHIMURIUM, Strain/Indicator: TA1535, Metabolic Activation: HAMSTER, LIVER, S-9, AROCLOR 1254 (10%), Method: PREINCUBATION): active; positive
- mutagenic call (Test System: AMES SALMONELLA TYPHIMURIUM, Strain/Indicator: TA1535, Metabolic Activation: NONE, Method: FLASK ASSAY): active; positive
- mutagenic call (Test System: AMES SALMONELLA TYPHIMURIUM, Strain/Indicator: TA1535, Metabolic Activation: NONE, Method: PREINCUBATION): inactive; negative
- mutagenic call (Test System: AMES SALMONELLA TYPHIMURIUM, Strain/Indicator: TA1535, Metabolic Activation: RAT, LIVER, S-9, AROCLOR 1254 (10%), Method: PREINCUBATION): active; positive
- mutagenic call (Test System: AMES SALMONELLA TYPHIMURIUM, Strain/Indicator: TA1535, Metabolic Activation: RAT, LIVER, S-9, AROCLOR 1254, Method: FLASK ASSAY): active; positive
- mutagenic call (Test System: AMES SALMONELLA TYPHIMURIUM, Strain/Indicator: TA1537, Metabolic Activation: HAMSTER, LIVER, S-9, AROCLOR 1254 (10%), Method: PREINCUBATION): inactive; negative
- mutagenic call (Test System: AMES SALMONELLA TYPHIMURIUM, Strain/Indicator: TA1537, Metabolic Activation: NONE, Method: FLASK ASSAY): inactive; negative
- mutagenic call (Test System: AMES SALMONELLA TYPHIMURIUM, Strain/Indicator: TA1537, Metabolic Activation: RAT, LIVER, S-9, AROCLOR 1254 (10%), Method: PREINCUBATION): inactive; negative
- mutagenic call (Test System: AMES SALMONELLA TYPHIMURIUM, Strain/Indicator: TA1537, Metabolic Activation: RAT, LIVER, S-9, AROCLOR 1254, Method: FLASK ASSAY): inactive; negative
- mutagenic call (Test System: AMES SALMONELLA TYPHIMURIUM, Strain/Indicator: TA1538, Metabolic Activation: NONE, Method: FLASK ASSAY): inactive; negative
- mutagenic call (Test System: AMES SALMONELLA TYPHIMURIUM, Strain/Indicator: TA1538, Metabolic Activation: RAT, LIVER, S-9, AROCLOR 1254, Method: FLASK ASSAY): inactive; negative
- mutagenic call (Test System: MOUSE LYMPHOMA, Strain/Indicator: L5178Y (TK+/TK-), Metabolic Activation: NONE, Method: SUSPENSION/PLATE): active; positive
- mutagenic call (Test System: MOUSE LYMPHOMA, Strain/Indicator: L5178Y (TK+/TK-), Metabolic Activation: RAT, LIVER, S-9, AROCLOR 1254, Method: SUSPENSION/PLATE): active; positive
- mutagenic call (Test System: UDS RODENT HEPATOCYTES, Strain/Indicator: THY INCORP (NON-S-PHASE), Metabolic Activation: AROCLOR 1254, Method: LIQUID SCINTILLATION COUNTING): inactive; negative
- mutagenic call (Test System: UDS RODENT HEPATOCYTES, Strain/Indicator: THY INCORP (NON-S-PHASE), Metabolic Activation: NONE, Method: LIQUID SCINTILLATION COUNTING): active; positive
